Assay: Stability of ascorbic acid and reduced glutathione in solution over time (chromatography with electrospray MS / photo diode array detection)
Assay type: physicochemical
Details: stored at room temperature
Method: A second solution and the final formulation from Example 1 were analyzed to evaluate the stability of ascorbic acid and reduced glutathione over a period of time at room temperature. The final formulation was formed by mixing together the first and second solutions and its pH was adjusted to about 7.4. […] The stability of ascorbic acid and the stability of reduced glutathione were determined over a period of time in both solutions. Both the final formulation and the second solution were stored at room temperature. The chromatography method developed and employed for this study separated the ascorbic acid and glutathione reproducibly and without any mutual interference between the components or their decomposition products. Two components were detected using electrospray spectrometry in +ve selected ion monitoring mode. In addition L-Ascorbic acid, and L-glutathione were also detected by photo diode array absorbing in the 190-400 nm range. The integrated chromatographic intensities of each of the component peaks was a measure of its molar quantity in solution analyzed. The pH, conductivity, and osmolalities were also measured for each sample. The stability indicating properties of GALA were evaluated at: 40° C.±2° C./75% RH±5% Relative Humidity (RH). A qualified stability chamber with uniform and constant temperature and relative humidity was used for storing the product containers. The chamber's thermometer and digital readout were recorded daily. Samples received for the proposed stability study were logged and tracked in a Sample Receipt and Storage Log and maintained at 2-8° C. until the commencement of the study. A minimum of twenty one containers of the device from each representative batch of the first and second solutions were placed in the stability chamber maintained at 40° C.±2° C./75% RH±5% RH. This date was recorded as the zero time point. Three containers of each of the first and second solutions were pulled at 0, 5, 9, 15, 30, 50, and 80-day intervals from the stability chamber for testing.

[1] = in the final formulation (first and second solutions mixed) having a pH of about 7.4
[2] = in the second solution having a pH of about 3.0

N[C@@H](CCC(=O)N[C@@H](CS)C(=O)NCC(=O)O)C(=O)O [reduced glutathione, L-glutathione (reduced)]
rate of decay [1]: about 6 mg per day
rate of decay [2]: about 3 mg per day

O=C1O[C@H]([C@@H](O)CO)C(O)=C1O [ascorbic acid, L-ascorbic acid]
rate of decay [1]: about 15 mg per day
rate of decay [2]: about 3 mg per day
